In ChEMBL document CHEMBL1142040, “Melanocortin subtype-4 receptor agonists containing a piperazine core with substituted aryl sulfonamides” (Bioorg Med Chem Lett, 2005):
Values joined by “and” are separate entries in the source; they are usually repeats but may differ in a detail not shown here. Equal entries are not always repeated.

What was measured:
Melanocortin receptor 4 [1] = molecular target: T1, Melanocortin receptor 4 (Homo sapiens, UniProt P32245); experiment: Effective concentration determined against melanocortin-4 receptor; type: functional
Melanocortin receptor 4 [2] = molecular target: T1, Melanocortin receptor 4; experiment: In vitro inhibitory concentration required against melanocortin 4 receptor using [125I]NDP-MSH as radioligand
[3] = Bioavailability concentration of compound was determined in mice; type: ADME, organism-based; settings: mouse, in vivo
[4] = Tmax of compound was determined in mice; type: ADME; settings: mouse, in vivo
Melanocortin receptor 5 = Melanocortin receptor 5 (Homo sapiens, UniProt P33032); experiment: Effective concentration determined against melanocortin-5 receptor; type: functional
[5] = Brain concentration of compound was determined in mice; type: ADME; settings: mouse, in vivo
[6] = Clearance value of compound was determined in mice; type: ADME, organism-based; settings: mouse, in vivo
Melanocortin receptor 3 = Melanocortin receptor 3 (Homo sapiens, UniProt P41968); experiment: Effective concentration determined against melanocortin-3 receptor; type: functional
[7] = Volume of distribution of compound was determined in mice; type: ADME, organism-based; settings: mouse, in vivo
[8] = Half life of compound was determined in mice; type: ADME; settings: mouse, in vivo
[9] = Maximum plasma level concentration was determined in mice; type: ADME, organism-based; settings: mouse
[10] = molecular target: Melanocortin receptor (M4 and M5) (Homo sapiens) (UniProt P32245+P33032); experiment: Selectivity for melanocortin 4 receptor compared to melanocortin 5 receptor in vitro; type: functional
Sequence of Melanocortin receptor (M4 and M5) (Homo sapiens) (P32245 whole entry, looked up): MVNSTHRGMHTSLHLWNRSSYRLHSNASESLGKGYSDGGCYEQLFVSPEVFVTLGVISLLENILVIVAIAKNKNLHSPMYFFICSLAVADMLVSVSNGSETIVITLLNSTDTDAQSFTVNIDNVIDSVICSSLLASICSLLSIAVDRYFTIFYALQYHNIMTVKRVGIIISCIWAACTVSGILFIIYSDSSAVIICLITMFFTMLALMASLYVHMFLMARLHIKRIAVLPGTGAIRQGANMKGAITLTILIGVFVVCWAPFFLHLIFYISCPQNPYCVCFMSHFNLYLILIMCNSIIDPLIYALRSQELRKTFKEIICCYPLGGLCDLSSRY
Sequence of Melanocortin receptor (M4 and M5) (Homo sapiens) (P33032 whole entry, looked up): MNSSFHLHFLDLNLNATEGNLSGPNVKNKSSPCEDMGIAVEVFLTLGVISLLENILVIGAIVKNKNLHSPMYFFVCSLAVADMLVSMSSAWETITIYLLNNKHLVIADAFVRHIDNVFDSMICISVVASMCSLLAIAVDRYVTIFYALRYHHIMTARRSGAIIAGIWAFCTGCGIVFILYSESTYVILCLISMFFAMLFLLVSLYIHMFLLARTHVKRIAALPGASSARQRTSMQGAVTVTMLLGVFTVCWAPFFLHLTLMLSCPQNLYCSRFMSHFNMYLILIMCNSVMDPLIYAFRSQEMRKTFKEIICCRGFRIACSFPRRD

Sequence of Melanocortin receptor 3 (P41968 whole entry): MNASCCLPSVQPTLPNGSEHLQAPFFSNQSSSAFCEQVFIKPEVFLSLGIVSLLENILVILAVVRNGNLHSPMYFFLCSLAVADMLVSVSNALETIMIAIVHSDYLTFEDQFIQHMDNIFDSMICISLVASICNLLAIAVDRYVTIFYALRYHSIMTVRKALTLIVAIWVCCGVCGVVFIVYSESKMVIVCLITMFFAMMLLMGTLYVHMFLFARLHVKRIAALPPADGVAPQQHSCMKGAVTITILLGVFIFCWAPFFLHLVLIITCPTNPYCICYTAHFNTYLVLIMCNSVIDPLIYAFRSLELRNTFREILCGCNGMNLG
T1 sequence (P32245 whole entry): as the sequence (P32245 whole entry, looked up) above
Sequence of Melanocortin receptor 5 (P33032 whole entry): as the sequence (P33032 whole entry, looked up) above

SMILES	EC50 (Melanocortin receptor 4 [1])	IC50 (Melanocortin receptor 4 [2]) [µM]	also measured
CCN1CCC(C(=O)N[C@H](Cc2ccc(Cl)cc2)C(=O)N2CCN(c3ccccc3N(CC3CC3)S(C)(=O)=O)CC2)CC1	0.0086 µM	0.11	–
CCCN(c1ccccc1N1CCN(C(=O)[C@@H](Cc2ccc(Cl)cc2)NC(=O)[C@@H]2Cc3ccccc3CN2)CC1)S(C)(=O)=O	0.00044 µM	–	bioavailability [3]: 20%; Tmax [4]: 15 min; EC50 (Melanocortin receptor 5): 0.21 µM; Cbrain [5]: 130 ng/g; Cl/F [6]: 30 mL/min/kg; EC50 (Melanocortin receptor 3): > 10 µM; V2/F [7]: 19 L/kg; T1/2 [8]: 26.4 min; Cmax [9]: 1400 ng/mL
CC(C)CCN1CC(C(=O)N[C@H](Cc2ccc(Cl)cc2)C(=O)N2CCN(c3ccccc3N(CC3CC3)S(C)(=O)=O)CC2)C1	0.049 µM	0.083	–
CS(=O)(=O)N(CC1CC1)c1ccccc1N1CCN(C(=O)[C@@H](Cc2ccc(Cl)cc2)NC(=O)c2ccc3ncccc3c2)CC1	0.027 µM	0.029	–
CS(=O)(=O)N(CC1CC1)c1ccccc1N1CCN(C(=O)[C@@H](Cc2ccc(Cl)cc2)NC(=O)C2CN(C3CCCCC3)C2)CC1	0.0018 µM	0.067	–
O=C(N[C@H](Cc1ccc(Cl)cc1)C(=O)N1CCN(c2ccccc2NS(=O)(=O)c2ccccc2)CC1)[C@@H]1Cc2ccccc2CN1	0.12 µM	0.73	–
CS(=O)(=O)N(CC1CC1)c1ccccc1N1CCN(C(=O)[C@@H](Cc2ccc(Cl)cc2)NC(=O)c2ccc3ccccc3c2)CC1	0.063 µM	0.28	–
CS(=O)(=O)N(CC1CC1)c1ccccc1N1CCN(C(=O)[C@@H](Cc2ccc(Cl)cc2)NC(=O)c2cnc3ccccc3c2)CC1	0.06 µM	0.094	–
CN1CCC(C(=O)N[C@H](Cc2ccc(Cl)cc2)C(=O)N2CCN(c3ccccc3N(CC3CC3)S(C)(=O)=O)CC2)CC1	0.012 µM	0.12	–
CS(=O)(=O)Nc1ccccc1N1CCN(C(=O)[C@@H](Cc2ccc(Cl)cc2)NC(=O)[C@@H]2Cc3ccccc3CN2)CC1	0.011 µM	0.34	Selectivity [10]: 21; EC50 (Melanocortin receptor 5): 0.23 µM; EC50 (Melanocortin receptor 3): > 10 µM
CN(c1ccccc1N1CCN(C(=O)[C@@H](Cc2ccc(Cl)cc2)NC(=O)[C@@H]2Cc3ccccc3CN2)CC1)S(C)(=O)=O	0.004 µM	0.21	–
O=C(N[C@H](Cc1ccc(Cl)cc1)C(=O)N1CCN(c2ccccc2NS(=O)(=O)Cc2ccccc2)CC1)[C@@H]1Cc2ccccc2CN1	0.065 µM	0.72	–
CS(=O)(=O)N(CCN)c1ccccc1N1CCN(C(=O)[C@@H](Cc2ccc(Cl)cc2)NC(=O)[C@@H]2Cc3ccccc3CN2)CC1	< 0.0001 µM	0.035	Selectivity [10]: 79; EC50 (Melanocortin receptor 5): 0.079 µM; EC50 (Melanocortin receptor 3): > 10 µM
CS(=O)(=O)N(CC1CC1)c1ccccc1N1CCN(C(=O)[C@@H](Cc2ccc(Cl)cc2)NC(=O)c2cc3ccccc3cn2)CC1	0.018 µM	0.41	–
CS(=O)(=O)N(CC1CC1)c1ccccc1N1CCN(C(=O)[C@@H](Cc2ccc(Cl)cc2)NC(=O)[C@@H]2Cc3ccccc3CN2)CC1	0.00058 µM and 0.0006 µM	0.061	Selectivity [10]: 170; EC50 (Melanocortin receptor 5): 0.17 µM; EC50 (Melanocortin receptor 3): 7 µM
